The record followed here is patent publication EP2608671B1, “COMPOUNDS FOR TREATMENT OF CANCER” (Gtx, Inc., priority 2010, dated 2012).

One assay deals with A375. The experiment in a line: SRB cell growth inhibition (cytotoxicity) assay. The assay is classed as cell-based, human. As to conditions: Homo sapiens.
The subject of another assay is B16-F1. The experiment in a line: SRB cell growth inhibition (cytotoxicity) assay. The assay is classed as cell-based, mouse. The note with it: Mus musculus, B16-F1; read-out: IC50 ± SEM (nM), B16-F1. An excerpt:
(§1) The only compounds which belong to the invention are the ones falling under the scope of formula (XI).

A further assay has as its system PC-3. The experiment in a line: cells.
Excerpt: as §1
Cells were stained with SRB solution.
Cells. […] Cells between the third and fifth passages were used for experiments.
Cell growth inhibition studies. […] Cells were stained with sulphorhodamine B (SRB) solution.

In the next assay the test system is PPC-1. In words: cells. As to conditions: Homo sapiens.
The next assay relates to LNCaP. The experiment in a line: cells. As to conditions: Homo sapiens.
The test system of the next assay is DU 145. In words: cells. As to conditions: Homo sapiens.
Setting [1] is: A-375, 96 h, read-out: IC50 ± SEM (nM), A375.
[2] abbreviates: Homo sapiens, PC-3, 96 h, read-out: IC50 ± SEM (nM), PC-3.
The mark [3] stands for this setting: PPC-1, 96 h, read-out: IC50 ± SEM (nM), PPC-1.
Setting [4] is: 96 h, read-out: IC50 ± SEM (nM), LNCaP.
Setting [5] is: DU-145, 96 h, read-out: IC50 ± SEM (nM), DU 145.
Where [6] appears, read: Homo sapiens, PC-3, 96 h, read-out: IC50 (nM), PC-3.
[7] abbreviates: DU-145, 96 h, read-out: IC50 ± SEM (nM) Du 145.
The mark [8] stands for this setting: Homo sapiens, PC-3, read-out: IC50 (nM), PC-3.
Where [9] appears, read: PPC-1, read-out: IC50 (nM), PPC-1.
The mark [10] stands for this setting: DU-145, read-out: IC50 (nM), DU 145.

Where two headings read alike, the source gives them in different places. Some results are limits rather than exact numbers.

By IC50 is commonly meant the midpoint of a concentration-inhibition curve. Regarding `COc1cc(C(=O)c2cccc(-c3ccccc3)c2)cc(OC)c1OC` [1a, Biphenyl-3-yl(3,4,5-trimethoxyphenyl)methanone], the IC50 in the assay on A375 (setting [1]) stood at 87 ± 15 nM; with B16-F1, 500 ± 200 nM; in the assay on PC-3 (setting [2]), 81 nM; with PPC-1 (setting [3]), 85 nM; in the assay with LNCaP (setting [4]) it was 234 nM; with DU 145 (setting [5]), 178 nM.

On to `COc1cc(NC(=O)c2csc(-c3ccccc3)n2)cc(OC)c1OC` [2g, 2-Phenyl-N-(3,4,5-trimethoxyphenyl)thiazole-4-carboxamide], for which the IC50 in the assay with A375 (setting [1]) was greater than 30000 nM; with B16-F1 it was greater than 30000 nM; with PC-3 (setting [2]), greater than 10000 nM; in the assay with PPC-1 (setting [3]), greater than 10000 nM; with DU 145 (setting [5]), greater than 10000 nM.

For `COc1cc(C(=O)c2csc(Nc3ccc(Cl)cc3)n2)cc(OC)c1OC` [5d, (2-((4-Chlorophenyl)amino)thiazol-4-yl)(3,4,5-trimethoxyphenyl)methanone], the IC50 was determined as 25 ± 7 nM in the assay on A375 (setting [1]); 33 ± 1 nM in the assay with PC-3 (setting [2]); 36 ± 1 nM in the assay on PPC-1 (setting [3]); 45 ± 1 nM with LNCaP (setting [4]); 73 ± 1 nM in the assay with DU 145 (setting [5]).

On to `Clc1nccc2ccc(-c3ccc4[nH]ccc4c3)cc12` [6d, 1-Chloro-7-(1H-indol-5-yl)-isoquinoline], for which the IC50 in the assay with PC-3 (Homo sapiens, PC-3, read-out: IC50 ±SEM (nM), PC-3) came out at 908 nM; in the assay with PPC-1 (PPC-1, read-out: IC50 ±SEM (nM), PPC-1), 929 nM; in the assay with LNCaP (read-out: IC50 ±SEM (nM), LNCaP), 703 nM; with DU 145 (DU-145, read-out: IC50 ±SEM (nM), DU 145), 1640 nM.

Regarding `O=S(=O)(c1ccccc1)n1ccnc1-c1ccccc1` [10a, 2-phenyl-1-(phenylsulfonyl)-1H-imidazole], the IC50 with PC-3 (setting [6]) was greater than 10000 nM.

As for `O=S(=O)(c1ccccc1)n1ccnc1-c1ccc(OCc2ccccc2)cc1` [10j, 2-(4-(benzyloxy)phenyl)-1-(phenylsulfonyl)-1H-imidazole], the IC50 in the assay with PC-3 (setting [6]) is greater than 10000 nM.

As to `O=[N+]([O-])c1ccc(-c2nccn2S(=O)(=O)c2ccccc2)cc1` [10x, 2-(4-nitrophenyl)-1-(phenylsulfonyl)-1H-imidazole], the IC50 with PC-3 (setting [6]) is greater than 10000 nM.

For `COc1cc(C(=O)n2ccnc2-c2ccccc2)cc(OC)c1OC` [12aaa, (2-phenyl-1H-imidazol-1-yl)(3,4,5-trimethoxyphenyl)methanone], in the assay on PC-3 (setting [6]), the IC50 was greater than 10000 nM.

For the compound `COc1ccc(C(=O)n2ccnc2-c2ccccc2)cc1` [12aba], the IC50 in the assay with PC-3 (read-out: IC50 (nM), PC-3, SRB, 96 h, Table 11) is greater than 10000 nM.

On to `COc1ccc(C(=O)c2c[nH]c(-c3ccccc3)n2)cc1OC` [12ae, (3,4-dimethoxyphenyl)(2-phenyl-1H-imidazol-4-yl)methanone], for which the IC50 in the assay with PC-3 (setting [6]) is greater than 10000 nM.

As to `O=C(c1cccc(F)c1)c1c[nH]c(-c2ccccc2)n1` [12ag, (3-fluorophenyl)(2-phenyl-1H-imidazol-4-yl)methanone], the IC50 with PC-3 (setting [6]) is greater than 10000 nM.

With `COc1cc(C(=O)c2c[nH]c(-c3ccc(F)cc3)n2)cc(OC)c1OC` [12ba, (2-(4-fluorophenyl)-1H-imidazol-4-yl)(3,4,5-trimethoxyphenyl)methanone], the IC50 was 169 ± 12 nM in the assay with PC-3 (setting [2]), 81 ± 1 nM with PPC-1 (setting [3]), 98 ± 2 nM with LNCaP (setting [4]) and 132 ± 24 nM in the assay on DU 145 (setting [7]).

`COc1ccc(-c2nc(C(=O)c3cc(OC)c(OC)c(OC)c3)c[nH]2)cc1` [12ca, (2-(4-methoxyphenyl)-1H-imidazol-4-yl)(3,4,5-trimethoxyphenyl)methanone]: the results for the half-inhibitory concentration (IC50) in the assay on PC-3 (setting [2]), in the assay with PPC-1 (setting [3]) and with DU 145 (setting [7]) were 45 ± 1 nM, 34 ± 0.3 nM and 48 ± 0.5 nM, respectively.

Consider `COc1cc(C(=O)c2cn(Cc3ccccc3)c(-c3ccc(C)cc3)n2)cc(OC)c1OC` [12daa, (1-Benzyl-2-(p-tolyl)-1H-imidazol-4-yl)(3,4,5-trimethoxyphenyl)methanone], for which the IC50 with PC-3 (setting [2]) is 466 nM; in the assay on PPC-1 (setting [3]), 778 nM; in the assay with LNCaP (setting [4]) it was 683 nM; in the assay on DU 145 (setting [7]), 1500 nM.

As to `COc1cc(C(=O)c2c[nH]c(-c3ccc(N(C)C)cc3)n2)cc(OC)c1OC` [12ga, (2-(4-(dimethylamino)phenyl)-1H-imidazol-4-yl)(3,4,5-trimethoxyphenyl)methanone], the IC50 with PC-3 (setting [2]) came to 92 ± 4 nM; in the assay on PPC-1 (setting [3]) it was 67 ± 0.7 nM; in the assay on LNCaP (setting [4]) it was 58 ± 2 nM; with DU 145 (setting [7]), 95 ± 1 nM.

With `CN(C)c1ccc(-c2nc(C(=O)c3ccc(F)cc3)c[nH]2)cc1` [12gb, (2-(4-(dimethylamino)phenyl)-1H-imidazol-4-yl)(4-fluorophenyl)methanone], the concentration for half-maximal inhibition (IC50) in the assay with PC-3 (setting [2]) was determined as 81 ± 3 nM; in the assay with PPC-1 (setting [3]) it was 45 ± 0.3 nM; with LNCaP (setting [4]), 57 ± 6 nM.

`COc1ccc(-c2nc(C(=O)c3ccc(F)cc3)c[nH]2)cc1OC` [12hb, (2-(3,4-dimethoxyphenyl)-1H-imidazol-4-yl)(4-fluorophenyl)methanone]: the IC50 is 10000 nM in the assay with A375 (A-375, A375 melanoma cells, 48 h, SRB, read-out: IC50 ± SEM (nM) A375); 10000 nM with PC-3 (setting [2]); 2170 ± 48 nM with PPC-1 (setting [3]); 2530 nM with LNCaP (setting [4]); 10000 nM in the assay with DU 145 (setting [7]).

Turning to `COc1cc(C(=O)c2c[nH]c(-c3ccc(OCc4ccccc4)cc3)n2)cc(OC)c1OC` [12ja, (2-(4-(benzyloxy)phenyl)-1H-imidazol-4-yl)(3,4,5-trimethoxyphenyl)methanone], the IC50 is 10000 nM in the assay on PC-3 (setting [2]), 2840 nM with PPC-1 (setting [3]), 2790 nM with LNCaP (setting [4]) and 10000 nM with DU 145 (setting [7]).

Turning to `O=C(c1ccc(F)cc1)c1c[nH]c(-c2ccc(OCc3ccccc3)cc2)n1` [12jb, (2-(4-(benzyloxy)phenyl)-1H-imidazol-4-yl)(4-fluorophenyl)methanone], the IC50 in the assay with PC-3 (setting [2]) was 79 ± 0.4 nM; with PPC-1 (setting [3]), 43 ± 0.2 nM; in the assay on LNCaP (setting [4]) it was 44 ± 7 nM; in the assay with DU 145 (setting [7]), 60 ± 3 nM.

As for `Fc1ccc(-c2ccc3ccnc(-c4ccc(F)cc4)c3c2)cc1` [compound 40, 1,7-Bis-(4-fluoro-phenyl)-isoquinoline], the IC50 with PC-3 (setting [8]) is 19600 nM; in the assay on PPC-1 (setting [9]), 6200 nM; with LNCaP (read-out: IC50 (nM), LNCaP), 13400 nM; in the assay on DU 145 (setting [10]), 18400 nM.

Consider `O=S(=O)(c1ccc(F)cc1)N1CCCc2ccc(-c3ccc4[nH]ccc4c3)cc21` [compound 41, 1-(4-Fluoro-benzenesulfonyl)-7-(1H-indol-5-yl)-1,2,3,4-tetrahydroquinoline], for which the IC50 in the assay with PC-3 (setting [8]) is 18200 nM; in the assay with PPC-1 (setting [9]), greater than 20000 nM; in the assay with LNCaP (read-out: IC50 (nM), LNCaP), 15800 nM; with DU 145 (setting [10]), 17000 nM.

In the case of `O=S(=O)(c1ccc(F)cc1)N1CCc2ccc(Br)cc2C1` [compound 42, 7-Bromo-2-(4-fluoro-benzenesulfonyl)-1,2,3,4-tetrahydro-isoquinoline], the IC50 in the assay with PC-3 (setting [8]) was 23800 nM; in the assay on PPC-1 (setting [9]) it was greater than 20000 nM; in the assay on LNCaP (read-out: IC50 (nM), LNCaP) it was 43600 nM; with DU 145 (setting [10]), 24900 nM.

Regarding `O=S(=O)(c1ccc(F)cc1)N1CCCc2ccc(Br)cc21` [compound 43, 7-Bromo-1-(4-fluoro-benzenesulfonyl)-1,2,3,4-tetrahydroquinoline], the IC50 is 14700 nM with PC-3 (setting [8]); greater than 20000 nM with PPC-1 (setting [9]); 12700 nM in the assay on LNCaP (read-out: IC50 (nM), LNCaP); 17200 nM with DU 145 (setting [10]).

For `c1ccc(Nc2nccn2C(c2ccccc2)(c2ccccc2)c2ccccc2)cc1` [d, N-Phenyl-1-trityl-1H-imidazol-2-amine], the IC50 with PC-3 (setting [2]), in the assay with PPC-1 (setting [3]), in the assay on LNCaP (setting [4]) and in the assay on DU 145 (setting [5]) was greater than 1000 nM throughout.

For the compound `COc1cc(C(=O)c2cn(C(c3ccccc3)(c3ccccc3)c3ccccc3)c(Nc3ccccc3)n2)cc(OC)c1OC` [e, (2-(Phenylamino)-1-trityl-1H-imidazol-4-yl)(3,4,5 trimethoxyphenyl)methanone], the IC50 in the assay with PC-3 (setting [2]), in the assay with PPC-1 (setting [3]), with LNCaP (setting [4]) and with DU 145 (setting [5]) was greater than 1000 nM in each case.
